# Key:
# [1] = system: CHEAL (Lambsquarters, Common); experiment: Postemergence herbicidal evaluation; format: in vivo, Chenopodium album; conditions: for herbicidal rating CHEAL / CHEAL herbicidal rating: postemergence
# Summary of the method: (§1)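 Seedlings grown about two weeks were sprayed at 40 psi with compound dispersed in 50/50 acetone/water plus 0.5% TWEEN 20, at about 0.0156 to 0.500 kg/ha. Plants were kept in the greenhouse and scored 4–5 weeks later on a 0–9 visual scale against untreated controls.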
# [2] = system: MOOVA (Monochoria); experiment: Postemergence weed control under flooded paddy conditions; format: in vivo, Monochoria vaginalis; conditions: postemergence weeds
# Summary of the method: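 Weeds 3 to 5 cm tall and rice seedlings at the 1.5 to 2.5 leaf stage were flooded, with water held 1.5 to 3 cm above the soil. Compounds in 50/50 v/v aqueous/acetone went into the flood water at about 0.0313 to 0.500 kg/ha. Visual 0-9 ratings versus control were made 3 to 4 weeks later.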
# [3] = system: ORYSAT (Rice, Tebonnet); experiment: Preemergence herbicidal evaluation; format: in vivo, Oryza sativa, (L.) Tebonnet; conditions: rated 4-5 weeks after treatment; for ORYSAT rating: preemergence, 0-9 scale
# Summary of the method: (§2)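 Seeds were mixed with potting soil and planted on about one inch of soil, then sprayed with test compound in aqueous acetone at about 0.0156 to 0.500 kg per hectare. Plants grew under standard greenhouse care and were visually rated 0-9 against untreated controls 4-5 weeks post-treatment.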
# [4] = system: TRZAWR (Wheat, Winter, cv Riband); experiment: Postemergence herbicidal evaluation; format: in vivo, Triticum aestivum; conditions: for herbicidal rating TRZAWR / TRZAWR herbicidal rating: postemergence
# Summary of the method: as §1
# [5] = system: CHEAL (Lambsquarters, Common); experiment: Preemergence herbicidal evaluation; format: in vivo, Chenopodium album; conditions: rated 4-5 weeks after treatment; for CHEAL rating: preemergence, 0-9 scale
# Summary of the method: as §2
# [6] = system: CASOB (Sicklepod); experiment: Postemergence herbicidal evaluation; format: in vivo, Cassia obtusifolia; conditions: for herbicidal rating CASOB / CASOB herbicidal rating: postemergence
# Summary of the method: as §1
# [7] = Rate 0.0625 kg/ha, rated 3 to 4 weeks after treatment
# [8] = Rate 0.0313 kg/ha, rated 3 to 4 weeks after treatment
# [9] = Rate 0.1250 kg/ha, rated 3 to 4 weeks after treatment
# [10] = Rate 0.2500 kg/ha, rated 3 to 4 weeks after treatment
compound,measurement,setting,value
"C#CCOC(=O)CC1SC(=Nc2cc(-n3c(=O)cc(C(F)(F)F)n(C)c3=O)c(F)cc2Cl)N(CC(=O)OCC)C1=O (stereo not shown) [Compound 59, 2-{{2-Chloro-5-[3,6-dihydro-3-methyl-2,6-dioxo-4-(trifluoromethyl)-1(2H)-pyrimidinyl]-4-fluorophenyl}imino}-4-oxo-3,5-thiazolidinediacetic acid, 3-ethyl (2-propynyl) ester]",Postemergence herbicidal rating CHEAL,[1]; Rate 0.0158 kg/ha,9.0
same,Postemergence herbicidal rating CHEAL,[1]; Rate 0.0315 kg/ha,9.0
same,Postemergence herbicidal rating CHEAL,[1]; Rate 0.0630 kg/ha,9.0
same,Herbicidal rating MOOVA,[2]; [7],0.0
same,Herbicidal rating MOOVA,"[2]; rate 0.1250 kg/ha, 3-4 weeks after treatment",0.0
same,Herbicidal rating MOOVA,"[2]; rate 0.2500 kg/ha, 3-4 weeks after treatment",9.0
same,Preemergence herbicidal rating ORYSAT,[3]; rate 0.0156 kg/ha,0.0
same,Preemergence herbicidal rating ORYSAT,[3]; rate 0.0313 kg/ha,0.0
same,Preemergence herbicidal rating ORYSAT,[3]; rate 0.0625 kg/ha,0.5
same,Preemergence herbicidal rating ORYSAT,[3]; rate 0.1250 kg/ha,2.5
same,Preemergence herbicidal rating ORYSAT,[3]; rate 0.2500 kg/ha,3.5
same,Preemergence herbicidal rating ORYSAT,[3]; rate 0.5000 kg/ha,7.0
same,Postemergence herbicidal rating TRZAWR,[4]; Rate 0.0158 kg/ha,8.0
same,Postemergence herbicidal rating TRZAWR,[4]; Rate 0.0315 kg/ha,8.0
same,Postemergence herbicidal rating TRZAWR,[4]; Rate 0.0630 kg/ha,9.0
same,Preemergence herbicidal rating CHEAL,[5]; rate 0.0156 kg/ha,9.0
same,Preemergence herbicidal rating CHEAL,[5]; rate 0.0313 kg/ha,9.0
same,Preemergence herbicidal rating CHEAL,[5]; rate 0.0625 kg/ha,9.0
same,Preemergence herbicidal rating CHEAL,[5]; rate 0.1250 kg/ha,9.0
same,Preemergence herbicidal rating CHEAL,[5]; rate 0.2500 kg/ha,9.0
same,Preemergence herbicidal rating CHEAL,[5]; rate 0.5000 kg/ha,9.0
same,Postemergence herbicidal rating CASOB,[6]; Rate 0.0158 kg/ha,3.0
same,Postemergence herbicidal rating CASOB,[6]; Rate 0.0315 kg/ha,9.0
same,Postemergence herbicidal rating CASOB,[6]; Rate 0.0630 kg/ha,9.0
"C=CCN1C(=O)C(CC(N)=O)SC1=Nc1cc(-n2c(=O)cc(C(F)(F)F)n(C)c2=O)c(F)cc1Cl (stereo not shown) [Compound 99, 3-Allyl-2-{{2-chloro-5-[3,6-dihydro-3-methyl-2,6-dioxo-4-(trifluoromethyl)-1(2H)-pyrimidinyl]-4-fluorophenyl}imino}-4-oxo-5-thiazolidineacetamide]",herbicidal rating CHEAL,[1]; rate 0.0156 kg/ha,7.0
same,herbicidal rating CHEAL,[1]; rate 0.0313 kg/ha,7.0
same,CHEAL herbicidal rating,[1]; rate 0.0625 kg/ha,9.0
same,CHEAL herbicidal rating,[1]; rate 0.1250 kg/ha,9.0
same,Herbicidal rating MOOVA,[2]; [8],9.0
same,Herbicidal rating MOOVA,[2]; [7],9.0
same,Herbicidal rating MOOVA,[2]; [9],9.0
same,Herbicidal rating MOOVA,[2]; [10],9.0
same,Herbicidal rating MOOVA,"[2]; Rate 0.5000 kg/ha, rated 3 to 4 weeks after treatment",9.0
same,ORYSAT rating,[3]; 0.0156 kg/ha,0.0
same,ORYSAT rating,[3]; 0.0313 kg/ha,0.0
same,ORYSAT rating,[3]; 0.0625 kg/ha,1.0
same,ORYSAT rating,[3]; 0.1250 kg/ha,1.0
same,ORYSAT rating,[3]; 0.2500 kg/ha,4.0
same,ORYSAT rating,[3]; 0.5000 kg/ha,4.0
same,herbicidal rating TRZAWR,[4]; rate 0.0156 kg/ha,4.0
same,herbicidal rating TRZAWR,[4]; rate 0.0313 kg/ha,4.5
same,TRZAWR herbicidal rating,[4]; rate 0.0625 kg/ha,5.5
same,TRZAWR herbicidal rating,[4]; rate 0.1250 kg/ha,6.5
same,CHEAL rating,[5]; 0.0156 kg/ha,9.0
same,CHEAL rating,[5]; 0.0313 kg/ha,9.0
same,CHEAL rating,[5]; 0.0625 kg/ha,9.0
same,CHEAL rating,[5]; 0.1250 kg/ha,9.0
same,CHEAL rating,[5]; 0.2500 kg/ha,9.0
same,CHEAL rating,[5]; 0.5000 kg/ha,9.0
same,herbicidal rating CASOB,[6]; rate 0.0156 kg/ha,4.0
same,herbicidal rating CASOB,[6]; rate 0.0313 kg/ha,7.0
same,CASOB herbicidal rating,[6]; rate 0.0625 kg/ha,8.0
same,CASOB herbicidal rating,[6]; rate 0.1250 kg/ha,9.0
"CCS(=O)(=O)NC(=O)CC1SC(=Nc2cc(-n3c(=O)cc(C(F)(F)F)n(C)c3=O)c(F)cc2Cl)N(C)C1=O (stereo not shown) [Compound 105, 2-{{2-Chloro-5-[3,6-dihydro-3-methyl-2,6-dioxo-4-(trifluoromethyl)-1(2H)-pyrimidinyl]-4-fluorophenyl}imino}-N-(ethylsulfonyl)-3-methyl-4-oxo-5-thiazolidineacetamide]",herbicidal rating CHEAL,[1]; rate 0.0156 kg/ha,0.0
same,herbicidal rating CHEAL,[1]; rate 0.0313 kg/ha,0.0
same,herbicidal rating CHEAL,[1]; rate 0.0625 kg/ha,2.0
same,herbicidal rating CHEAL,[1]; rate 0.1250 kg/ha,2.0
same,Herbicidal rating MOOVA,[2]; [8],6.0
same,Herbicidal rating MOOVA,[2]; [7],7.0
same,Herbicidal rating MOOVA,[2]; [9],7.0
same,Herbicidal rating MOOVA,[2]; [10],9.0
same,ORYSAT rating,[3]; 0.1250 kg/ha,0.0
same,ORYSAT rating,[3]; 0.2500 kg/ha,0.0
same,ORYSAT rating,[3]; 0.5000 kg/ha,0.0
same,herbicidal rating TRZAWR,[4]; rate 0.0156 kg/ha,3.5
same,herbicidal rating TRZAWR,[4]; rate 0.0313 kg/ha,3.0
same,herbicidal rating TRZAWR,[4]; rate 0.0625 kg/ha,3.5
same,herbicidal rating TRZAWR,[4]; rate 0.1250 kg/ha,3.5
same,CHEAL rating,[5]; 0.1250 kg/ha,9.0
same,CHEAL rating,[5]; 0.2500 kg/ha,9.0
same,CHEAL rating,[5]; 0.5000 kg/ha,9.0
same,herbicidal rating CASOB,[6]; rate 0.0156 kg/ha,0.0
same,herbicidal rating CASOB,[6]; rate 0.0313 kg/ha,0.0
same,herbicidal rating CASOB,[6]; rate 0.0625 kg/ha,0.0
same,herbicidal rating CASOB,[6]; rate 0.1250 kg/ha,1.0
"CN1C(=O)C(CC(=O)NS(C)(=O)=O)SC1=Nc1cc(-n2c(=O)cc(C(F)(F)F)n(C)c2=O)c(F)cc1Cl (stereo not shown) [Compound 97, 2-{{2-Chloro-5-[3,6-dihydro-3-methyl-2,6-dioxo-4-(trifluoromethyl)-1(2H)-pyrimidinyl]-4-fluorophenyl}imino}-3-methyl-N-(methylsulfonyl)-4-oxo-5-thiazolidineacetamide]",CHEAL herbicidal rating,[1]; rate 0.0156 kg/ha,0.0
same,CHEAL herbicidal rating,[1]; rate 0.0313 kg/ha,1.0
same,CHEAL herbicidal rating,[1]; rate 0.0625 kg/ha,4.0
same,CHEAL herbicidal rating,[1]; rate 0.1250 kg/ha,7.0
same,Herbicidal rating MOOVA,[2]; [8],9.0
same,Herbicidal rating MOOVA,[2]; [7],9.0
same,Herbicidal rating MOOVA,[2]; [9],9.0
same,Herbicidal rating MOOVA,[2]; [10],9.0
same,ORYSAT rating,[3]; 0.1250 kg/ha,0.0
same,ORYSAT rating,[3]; 0.2500 kg/ha,1.0
same,ORYSAT rating,[3]; 0.5000 kg/ha,1.0
same,TRZAWR herbicidal rating,[4]; rate 0.0156 kg/ha,1.0
same,TRZAWR herbicidal rating,[4]; rate 0.0313 kg/ha,1.5
same,TRZAWR herbicidal rating,[4]; rate 0.0625 kg/ha,2.5
same,TRZAWR herbicidal rating,[4]; rate 0.1250 kg/ha,4.0
same,CHEAL rating,[5]; 0.1250 kg/ha,7.0
same,CHEAL rating,[5]; 0.2500 kg/ha,9.0
same,CHEAL rating,[5]; 0.5000 kg/ha,9.0
same,CASOB herbicidal rating,[6]; rate 0.0156 kg/ha,0.0
same,CASOB herbicidal rating,[6]; rate 0.0313 kg/ha,0.0
same,CASOB herbicidal rating,[6]; rate 0.0625 kg/ha,0.0
same,CASOB herbicidal rating,[6]; rate 0.1250 kg/ha,1.0

# From US20020137929A1, “1 - (3-heterocyclylphenyl) isothiourea, -isourea, -guanidine and -amidine herbicidal agents” (Intellectual Property Department, BASF Aktiengesellschaft, priority 1998, published 2002)
